Assay results: PubChem BioAssay AID248 (DTP/NCI, 2004)
“And” between values parts separate entries of the source, which are not always exact repeats. Equal entries are not always repeated. Inconclusive results and toxic doses are left out. No stated cut-off is given here; in the data, active means T/C of 150% or more; inactive means T/C below 125%.

Tested on: L1210 leukemia ip in BDF1 mice, survival T/C
Test: NCI In Vivo Anticancer Drug Screen. Data for tumor model L1210 Leukemia (intraperitoneal) in B6D2F1 (BDF1) mice
Settings: endpoint: mean survival time, higher = longer survival
In short: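 Tumor cells were implanted, animals were treated, and survival was followed. The result divides the treated measurement by the vehicle-control measurement.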

[1] = dose: 100.0 mg/kg/injection, schedule: Q01DX009 (ip), vehicle: Klucel (hydroxypropylcellulose) (HPC)
[2] = dose: 100.0 mg/kg/injection, schedule: Q04DX003 (ip), vehicle: other
[3] = dose: 200.0 mg/kg/injection, schedule: Q01DX009 (ip), vehicle: Klucel (hydroxypropylcellulose) (HPC)
[4] = dose: 200.0 mg/kg/injection, schedule: Q04DX003 (ip), vehicle: other
[5] = dose: 400.0 mg/kg/injection, schedule: Q01DX009 (ip), vehicle: Klucel (hydroxypropylcellulose) (HPC)
[6] = dose: 50.0 mg/kg/injection, schedule: Q04DX002 (ip), vehicle: saline with Tween-80
[7] = dose: 100.0 mg/kg/injection, schedule: Q04DX002 (ip), vehicle: saline with Tween-80
[8] = dose: 200.0 mg/kg/injection, schedule: Q04DX002 (ip), vehicle: saline with Tween-80
[9] = dose: 100.0 mg/kg/injection, schedule: Q04DX003 (ip), vehicle: saline with Tween-80
[10] = dose: 200.0 mg/kg/injection, schedule: Q04DX003 (ip), vehicle: saline with Tween-80
[11] = dose: 400.0 mg/kg/injection, schedule: Q04DX003 (ip), vehicle: saline with Tween-80
[12] = dose: 100.0 mg/kg/injection, schedule: Q01DX009 (ip), vehicle: saline with Tween-80
[13] = dose: 100.0 mg/kg/injection, schedule: Q01DX009 (ip), vehicle: saline
[14] = dose: 200.0 mg/kg/injection, schedule: Q01DX009 (ip), vehicle: saline
[15] = dose: 100.0 mg/kg/injection, schedule: Q01DX001 (ip), vehicle: carboxymethylcellulose (CMC)
[16] = dose: 200.0 mg/kg/injection, schedule: Q01DX001 (ip), vehicle: carboxymethylcellulose (CMC)
[17] = dose: 400.0 mg/kg/injection, schedule: Q01DX001 (ip), vehicle: carboxymethylcellulose (CMC)
[18] = dose: 200.0 mg/kg/injection, schedule: Q01DX009 (ip), vehicle: saline with Tween-80
[19] = dose: 400.0 mg/kg/injection, schedule: Q01DX009 (ip), vehicle: saline with Tween-80
[20] = dose: 100.0 mg/kg/injection, schedule: Q04DX003 (ip), vehicle: Klucel (hydroxypropylcellulose) (HPC)
[21] = dose: 200.0 mg/kg/injection, schedule: Q04DX003 (ip), vehicle: Klucel (hydroxypropylcellulose) (HPC)
[22] = dose: 400.0 mg/kg/injection, schedule: Q04DX003 (ip), vehicle: Klucel (hydroxypropylcellulose) (HPC)
[23] = dose: 50.0 mg/kg/injection, schedule: Q01DX001 (ip), vehicle: saline
[24] = dose: 100.0 mg/kg/injection, schedule: Q01DX001 (ip), vehicle: saline
[25] = dose: 200.0 mg/kg/injection, schedule: Q01DX001 (ip), vehicle: saline
[26] = dose: 400.0 mg/kg/injection, schedule: Q04DX002 (ip), vehicle: saline with Tween-80

Measured: T/C

CC(=O)O[C@]1(C(C)=O)CC[C@H]2[C@@H]3C[C@H](F)C4=CC(=O)CC[C@]4(C)[C@H]3CC[C@@]21C
inactive: [1] 98 % of control | [2] 93 % of control | [3] 97 % of control | [4] 98 % of control | [5] 101 % of control | dose: 400.0 mg/kg/injection, schedule: Q04DX003 (ip), vehicle: other 100 % of control

COc1c(Cl)c(Cl)c(Cl)c(Cl)c1NC(C)=O
inactive: dose: 100.0 mg/kg/injection, schedule: Q01DX001 (ip), vehicle: acetone 102 % of control | dose: 200.0 mg/kg/injection, schedule: Q01DX001 (ip), vehicle: acetone 100 % of control | dose: 400.0 mg/kg/injection, schedule: Q01DX001 (ip), vehicle: acetone 94 % of control

c1ccc2n[nH]nc2c1
inactive: [6] 95 % of control | [7] 106 % of control | [8] 98 % of control

O=C(O)c1ccc(COc2ccc([N+](=O)[O-])cc2Cl)cc1
inactive: dose: 100.0 mg/kg/injection, schedule: Q01DX009 (ip), vehicle: saline sonified 96 % of control | [9] 96 % of control | dose: 200.0 mg/kg/injection, schedule: Q01DX009 (ip), vehicle: saline sonified 97 % of control | [10] 96 % of control | [11] 101 % of control

CCCC(=O)NC(=S)Nc1ccccc1
inactive: dose: 75.0 mg/kg/injection, schedule: Q01DX001 (ip), vehicle: carboxymethylcellulose (CMC) 98 % of control

Nc1ncnc2c1nnn2C1CC(CO)C(O)C1O (stereo not given)
inactive: dose: 50.0 mg/kg/injection, schedule: Q04DX003 (ip), vehicle: other 112 % of control | dose: 67.0 mg/kg/injection, schedule: Q01DX009 (ip), vehicle: saline with Tween-80 122 % of control | dose: 67.0 mg/kg/injection, schedule: Q04DX003 (ip), vehicle: other 106 % of control | [12] 118 % of control | [2] 114 % of control | dose: 150.0 mg/kg/injection, schedule: Q01DX009 (ip), vehicle: saline with Tween-80 118 % of control | dose: 150.0 mg/kg/injection, schedule: Q04DX003 (ip), vehicle: other 111 % of control | [4] 123 % of control

O=C(Nc1ccccc1Cl)Nc1cc(Cl)ccc1Cl
inactive: dose: 100.0 mg/kg/injection, schedule: Q04DX002 (ip), vehicle: saline + alcohol 100 % of control | dose: 200.0 mg/kg/injection, schedule: Q04DX002 (ip), vehicle: saline + alcohol 100 % of control | dose: 400.0 mg/kg/injection, schedule: Q04DX002 (ip), vehicle: saline + alcohol 92 % of control

CC(=O)CCC(=O)OCCCl
inactive: dose: 50.0 mg/kg/injection, schedule: Q01DX009 (ip), vehicle: saline 102 % of control | [13] 101 % of control | [14] 101 % of control

COc1c(N(C)C)cc2c(c1C)OC(C)(C)C=C2
inactive: [9] 96 % of control | [10] 94 % of control | [11] 96 % of control

Cn1c[n+](C2OC(CO)C(O)C2O)c2nc(N)[nH]c(=O)c21 (stereo not given)
inactive: dose: 50.0 mg/kg/injection, schedule: Q01DX001 (ip), vehicle: carboxymethylcellulose (CMC) 92 % of control | [15] 92 % of control | [16] 97 % of control | [17] 93 % of control

Cc1cc(N(CCCOS(C)(=O)=O)CCCOS(C)(=O)=O)ccc1C=Nc1cccc(Br)c1
inactive: [12] 96 % of control | [18] 94 % of control | [19] 91 % of control

O=C(O)Cc1ccc(N=Nc2c(O)c(C(=O)O)cc3ccccc23)cc1
inactive: [1] 96 % of control | [20] 93 % of control | [3] 105 % of control | [21] 100 % of control | [5] 100 % of control | [22] 103 % of control

CCCCCCCCCCCCC(O)(CCC)C(=O)O (stereo not given)
inactive: dose: 100.0 mg/kg/injection, schedule: Q04DX002 (ip), vehicle: Klucel (hydroxypropylcellulose) (HPC) 102 % of control | dose: 200.0 mg/kg/injection, schedule: Q04DX002 (ip), vehicle: Klucel (hydroxypropylcellulose) (HPC) 98 % of control | dose: 400.0 mg/kg/injection, schedule: Q04DX002 (ip), vehicle: Klucel (hydroxypropylcellulose) (HPC) 98 % of control

CCCCCCCCCCCCCCCCCCCC[As](=O)(O)CCCCCCCCCCCCCCCCCCCC
inactive: [23] 97 % of control | [24] 101 % of control | [25] 95 % of control | dose: 400.0 mg/kg/injection, schedule: Q01DX001 (ip), vehicle: saline 103 % of control

CCCCNN
inactive: dose: 75.0 mg/kg/injection, schedule: Q01DX001 (ip), vehicle: other 96 % of control | dose: 150.0 mg/kg/injection, schedule: Q01DX001 (ip), vehicle: other 113 % of control

COc1cc([N+](=O)[O-])ccc1NC(=O)N(C)Cc1ccccc1
inactive: dose: 50.0 mg/kg/injection, schedule: Q01DX001 (ip), vehicle: saline with Tween-80 95 % of control | dose: 100.0 mg/kg/injection, schedule: Q01DX001 (ip), vehicle: saline with Tween-80 93 % of control | [12] 96 % of control | [7] 92 % of control and 93 % of control | [9] 116 % of control | [18] 98 % of control | [8] 94 % of control and 102 % of control | [10] 98 % of control | dose: 400.0 mg/kg/injection, schedule: Q01DX001 (ip), vehicle: saline with Tween-80 87 % of control and 88 % of control | [19] 94 % of control | [26] 93 % of control and 101 % of control | [11] 101 % of control

Cc1cccc(CCl)c1
inactive: dose: 37.5 mg/kg/injection, schedule: Q01DX009 (ip), vehicle: saline sonified 106 % of control | dose: 75.0 mg/kg/injection, schedule: Q01DX009 (ip), vehicle: saline sonified 95 % of control | dose: 100.0 mg/kg/injection, schedule: Q04DX003 (ip), vehicle: saline 102 % of control | dose: 150.0 mg/kg/injection, schedule: Q01DX009 (ip), vehicle: saline sonified 98 % of control | dose: 200.0 mg/kg/injection, schedule: Q04DX003 (ip), vehicle: saline 100 % of control | dose: 400.0 mg/kg/injection, schedule: Q04DX003 (ip), vehicle: saline 93 % of control

CCN(CC)C(=O)Nc1cc2c3c(c1)CCCN3CCC2
inactive: [6] 96 % of control | [7] 93 % of control | [8] 90 % of control | [26] 114 % of control

NC(=S)N/N=C\c1ccc(/C=N/NC(N)=S)cc1
inactive: [23] 90 % of control | [24] 93 % of control | [25] 90 % of control

ClCCN1CCOC1=Nc1ccccc1
inactive: dose: 100.0 mg/kg/injection, schedule: Q01DX001 (ip), vehicle: other 105 % of control | dose: 200.0 mg/kg/injection, schedule: Q01DX001 (ip), vehicle: other 105 % of control | dose: 400.0 mg/kg/injection, schedule: Q01DX001 (ip), vehicle: other 100 % of control

CCN(CC)CCOc1ccc(C2=C(c3ccccc3)CCc3cc(OC)ccc32)cc1
inactive: [15] 90 % of control | [16] 92 % of control | [17] 90 % of control

CC12C3CCC(C3)C1(O)C2S(=O)(=O)N1CCCCC1 (stereo not given)
inactive: [13] 110 % of control | [14] 104 % of control

COC(=O)c1cccc2cnccc12
inactive: [20] 107 % of control | [21] 110 % of control | [22] 96 % of control

NC(=O)c1ccc[n+](CCCl)c1
inactive: dose: 62.5 mg/kg/injection, schedule: Q01DX010 (ip), vehicle: saline 94 % of control | dose: 125.0 mg/kg/injection, schedule: Q01DX010 (ip), vehicle: saline 93 % of control
